In experiment [1] the target is Histone-lysine N-methyltransferase SUV39H2 (Homo sapiens, UniProt Q9H5I1). Kind of experiment: Inhibition of SUV39H2 (unknown origin) using H3 histone peptide substrate and [3H]-SAM incubated for 3 hrs by microbeta counting based assay.
For the next experiment, the system named is A549. Put plainly: Cytotoxicity against human A549 cells assessed as reduction in cell viability incubated for 72 hrs by CCK8 assay. Type of experiment: functional, cell-based. The conditions noted are these: A549, 72 h.
Another experiment deals with HFL1. Put plainly: Cytotoxicity against human HFL1 cells assessed as reduction in cell viability incubated for 72 hrs by CCK8 assay. In kind it is functional, cell-based. The conditions noted are these: HFL1, 72 h.
The next experiment concerns CCD-18Co. Kind of experiment: Cytotoxicity against human CCD-18Co cells assessed as reduction in cell viability incubated for 72 hrs by CCK8 assay. Type of experiment: functional, cell-based. On the technique in general: Tetrazolium dyes change colour on reduction, which living cells bring about.
The test system of the next experiment is HCT-116. Put plainly: Cytotoxicity against human HCT116 cells assessed as reduction in cell viability incubated for 72 hrs by CCK8 assay. In kind it is functional, cell-based. The conditions noted are these: HCT-116, 72 h.
The next experiment has as its system PC-14. Kind of experiment: Cytotoxicity against human PC14 cells assessed as reduction in cell viability incubated for 72 hrs by CCK8 assay. The following applies: PC-14, 72 h. Type of experiment: functional, cell-based.

Structures are written as SMILES. pIC50: −log10 of the molar value.

Broadly, the pIC50 is the IC50 on a negative log10 scale, so that one unit is a factor of ten.

Sequence of Histone-lysine N-methyltransferase SUV39H2 (Q9H5I1 whole entry): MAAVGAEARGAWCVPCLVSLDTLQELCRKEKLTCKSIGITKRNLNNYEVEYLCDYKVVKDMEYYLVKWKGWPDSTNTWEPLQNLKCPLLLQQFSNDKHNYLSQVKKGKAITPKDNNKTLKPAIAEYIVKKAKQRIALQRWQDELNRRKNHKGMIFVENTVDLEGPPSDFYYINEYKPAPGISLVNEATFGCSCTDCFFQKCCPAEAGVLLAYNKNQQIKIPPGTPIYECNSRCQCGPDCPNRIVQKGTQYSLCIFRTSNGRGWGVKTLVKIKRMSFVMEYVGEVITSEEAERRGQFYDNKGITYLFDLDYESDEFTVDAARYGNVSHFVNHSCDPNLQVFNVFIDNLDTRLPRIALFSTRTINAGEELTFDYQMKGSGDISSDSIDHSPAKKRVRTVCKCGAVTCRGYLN

The molecule `CNCC(=O)Nc1ccc(-c2ccn3cc(-c4cc(Cl)c(OC)cc4OC)nc3c2)cc1` gave a pIC50 in experiment [1] of 7.10.
`COc1cc(OC)c(-c2cn3ccc(N4CCN(c5cnc(N6CCC(NS(=O)(=O)C7CC7)CC6)nc5)CC4)cc3n2)cc1Cl`: in the experiment with A549, the pIC50 was 6.17.
Still for that read-out and setting: under `COc1cc(OC)c(-c2cn3ccc(N[C@H]4CC[C@@H](N(C)Cc5ccc(F)cc5)CC4)cc3n2)cc1Cl` stands 5.89; under `COc1cc(OC)c(-c2cn3ccc(N4CCN(Cc5ccc(C#N)nc5)CC4)cc3n2)cc1Cl`, 6.02; under `COc1cc(OC)c(-c2cn3ccc(N[C@H]4C[C@H]5CC[C@@H](C4)N5CC4CCCCC4)cc3n2)cc1Cl`, 6.26.
Take `COc1cc(OC)c(-c2cn3ccc(-c4ccc(C(=O)NC5CCNC5)cc4)cc3n2)cc1Cl` (centres undefined): the pIC50 in the experiment with HFL1 is 5.27; in the experiment on CCD-18Co it was 5.28; in the experiment on HCT-116 it was 5.43; with A549 it was 5.27; in the experiment with PC-14, 5.32.
For `COc1cc(OC)c(-c2cn3ccc(NC(=O)[C@@H](N)CCCCN)cc3n2)cc1Cl`, the pIC50 with HFL1, in the experiment on CCD-18Co, in the experiment on HCT-116 and with A549 was 5.00 throughout.
In experiment [1], `COc1cc(OC)c(-c2cn3ccc(N4CCN(c5cnc(N6CCNCC6)nc5)CC4)cc3n2)cc1Cl` gave a pIC50 of 7.83.
Same read-out and setting: under `COCC(=O)N1CCN(c2ccn3cc(-c4cc(Cl)c(OC)cc4OC)nc3c2)C(C)C1` (centres undefined) stands 8.73.
In experiment [1], `COc1cc(OC)c(-c2cn3ccc(-c4ccc(C(=O)[C@H](C)N)cc4)cc3n2)cc1Cl` gave a negative-log IC50 (pIC50) of 7.00.
Molecule `COC(=O)c1ccc(CN[C@H]2CC[C@@H](Nc3ccn4cc(-c5cc(Cl)c(OC)cc5OC)nc4c3)CC2)cc1` showed a negative logarithm of the IC50 (pIC50) in experiment [1] of 7.62.
For `COc1cc(OCCCN(C)C)c(-c2cn3ccc(N4CCN(C(C)=O)CC4)cc3n2)cc1Cl`, the negative logarithm of the IC50 (pIC50) in the experiment on HFL1 is 5.37; with CCD-18Co it was 5.06; in the experiment on HCT-116, 5.10; in the experiment with A549, 5.16; in the experiment on PC-14, 5.10.
Consider `COc1cc(OC)c(-c2cn3ccc(N[C@H]4CC[C@@H](N(C)Cc5ccccc5F)CC4)cc3n2)cc1Cl`, for which the pIC50 in the experiment with A549 is 6.13.

The values above are taken from ChEMBL document CHEMBL4476875 (2018).
